Results from patent publication US20090018150A1, “5-Ht2b Receptor Antagonists” (ASTERAND UK LIMITED, priority 2003, published 2009).

Key:
[1] = biological target: T1, human cloned 5-HT2B receptors (Homo sapiens, UniProt P41595); assay: Human cloned 5-HT2B receptor binding assay; settings: [3H]LSD (1 nM) displacement, membranes of CHO-K1 cells expressing cloned 5-HT2B receptor; read-out: 5-HT2B pKi (converted)
T1 construct: expressed in transfected cells; host or cells: CHO-K1
Method in brief: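 Membranes from CHO-K1 cells expressing cloned receptor incubated 30 min at 37 °C with 1 nM [3H]LSD, 10 μM pargyline and compound (1×10^−10 to 1×10^−4 M) in 50 mM Tris-HCl pH 7.4, 4 mM CaCl2. Nonspecific binding with 100 μM 5-HT; filtration and scintillation counting, IC50 converted to Ki using Kd from saturation binding.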

[2] = biological target: T1, human cloned 5-HT2B receptors; assay: Human cloned 5-HT2B cell-based functional assay; settings: inhibition of 5-HT response, Fluo-4 AM, CHO.K1 cells expressing cloned 5-HT2B receptor
Description: The following describes an in vitro functional assay using human cloned 5-HT2B receptors to determine the ability of compounds to block the receptor. CHO.K1 cells expressing cloned 5-HT2B receptor were maintained In Ultra-CHO medium containing 400 μg/ml of G418, 1000 U/ml penicillin, 100 μg/ml streptomycin, 2.5 μg/ml fungizone, in 95/5% O2/CO2 at 37° C. Ultra-CHO medium additionally supplemented with 1% foetal bovine serum was used when seeding the cells and removed after 5 hours. Cells were plated in Costar 96 well white, clear-bottomed plate at a density of 50,000 cells per well and incubated for at least 24 hours in 95/5% O2/CO2 at 37° C. before running the assay. Media was removed from the wells and 200 μl of 4 μM Fluo-4 AM added, this was incubated in a Wallace Victor 2V workstation at 37° C. for 30 minutes. The Fluo-4 AM was then removed from the wells, which were then washed twice with 200 μl of buffer (HBSS without calcium/magnesium/phenol red, 20 mM HEPES, 1 mM Ca^2+, 1 mM Mg^2+, 2.5 mM probenecid, pH to 7.4), 180 μl of buffer or test compound was added to the well and incubated for 30 minutes. The Victor 2V injectors were used to inject 20 μl of 5-HT after obtaining 10 0.1-second baseline readings at 535 nm, followed by 150 readings. All test compounds were aliquoted in 100% DMSO at 10 mM and diluted to 1 mM in 50% DMSO, subsequent dilutions were made using buffer. Buffer was also used to dilute the 5-HT. Data were analysed using Microsoft Excel and GraphPad Prism, with the latter used to produce sigmoidal dose-response curves for each compound. The compound concentration that inhibited the 5-HT response by 50% was taken (IC50-M), and the results are shown in Table 2, as pIC50, being the negative log (to the base 10) of the measured IC50 values.

[3] = biological target: T2, cloned human 5-HT2A receptor (Homo sapiens, UniProt P28223); assay: Human 5-HT2A receptor binding assay; settings: [3H]ketanserin (1 nM) displacement, CHO-K1 cell membranes; read-out: 5-HT2A pKi (converted)
T2 construct: purchased Euroscreen; host or cells: CHO-K1
T2 sequence (P28223 whole entry): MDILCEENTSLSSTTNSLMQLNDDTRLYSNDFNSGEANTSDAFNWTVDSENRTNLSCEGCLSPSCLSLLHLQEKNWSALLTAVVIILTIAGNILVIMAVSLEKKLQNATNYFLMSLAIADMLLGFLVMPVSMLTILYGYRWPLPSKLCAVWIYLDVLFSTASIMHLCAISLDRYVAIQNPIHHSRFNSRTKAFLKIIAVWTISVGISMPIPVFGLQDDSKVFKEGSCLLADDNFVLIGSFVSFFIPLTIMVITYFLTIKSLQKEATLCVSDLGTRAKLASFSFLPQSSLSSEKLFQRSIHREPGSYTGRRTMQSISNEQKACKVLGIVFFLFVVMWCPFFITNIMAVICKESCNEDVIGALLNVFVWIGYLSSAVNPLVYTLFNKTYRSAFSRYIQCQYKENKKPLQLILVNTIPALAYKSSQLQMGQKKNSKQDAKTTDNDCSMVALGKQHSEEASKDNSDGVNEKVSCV
Method in brief: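 Competition binding with 15 μg membranes from CHO-K1 cells expressing cloned human receptor, 1 nM [3H]ketanserin, 10 μM pargyline, 50 mM Tris pH 7.4, compounds 1×10^−10 to 1×10^−4 M; 100 μM mianserin defined nonspecific binding. Incubated 15 min at 37 °C, filtered, counted; IC50 converted to Ki using saturation-derived Kd.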

[4] = biological target: T3, cloned human 5-HT2C receptor (Homo sapiens, UniProt P28335); assay: Human 5-HT2C receptor binding assay; settings: [3H]mesulergine (1 nM) displacement, CHO-K1 cell membranes; read-out: 5-HT2C pKi (converted)
T3 construct: purchased Euroscreen; host or cells: CHO-K1
T3 sequence (P28335 33-458): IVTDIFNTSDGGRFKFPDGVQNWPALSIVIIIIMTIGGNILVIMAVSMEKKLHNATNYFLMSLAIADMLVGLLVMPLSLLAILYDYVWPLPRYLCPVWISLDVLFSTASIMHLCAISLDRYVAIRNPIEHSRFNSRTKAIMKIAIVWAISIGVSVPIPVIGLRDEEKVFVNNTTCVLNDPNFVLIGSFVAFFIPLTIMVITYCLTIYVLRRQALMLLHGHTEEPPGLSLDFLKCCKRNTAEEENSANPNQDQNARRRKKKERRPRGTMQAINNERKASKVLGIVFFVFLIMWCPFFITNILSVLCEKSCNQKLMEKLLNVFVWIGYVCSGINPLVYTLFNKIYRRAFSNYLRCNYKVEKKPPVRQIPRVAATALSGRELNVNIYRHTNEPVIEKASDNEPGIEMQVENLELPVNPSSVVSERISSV
Method in brief: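 CHO-K1 cell membranes expressing the receptor (6 μg) competed against [^3H]mesulergine (1 nM) in 50 mM Tris-HCl pH 7.7, 0.1% ascorbic acid, 10 μM pargyline for 30 min at 37° C; compounds 1×10^−10 to 1×10^−4M. Nonspecific binding with 100 μM mianserin; filtration and scintillation counting. IC50 converted to Ki using saturation-derived Kd.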

T1 sequence (P41595 whole entry): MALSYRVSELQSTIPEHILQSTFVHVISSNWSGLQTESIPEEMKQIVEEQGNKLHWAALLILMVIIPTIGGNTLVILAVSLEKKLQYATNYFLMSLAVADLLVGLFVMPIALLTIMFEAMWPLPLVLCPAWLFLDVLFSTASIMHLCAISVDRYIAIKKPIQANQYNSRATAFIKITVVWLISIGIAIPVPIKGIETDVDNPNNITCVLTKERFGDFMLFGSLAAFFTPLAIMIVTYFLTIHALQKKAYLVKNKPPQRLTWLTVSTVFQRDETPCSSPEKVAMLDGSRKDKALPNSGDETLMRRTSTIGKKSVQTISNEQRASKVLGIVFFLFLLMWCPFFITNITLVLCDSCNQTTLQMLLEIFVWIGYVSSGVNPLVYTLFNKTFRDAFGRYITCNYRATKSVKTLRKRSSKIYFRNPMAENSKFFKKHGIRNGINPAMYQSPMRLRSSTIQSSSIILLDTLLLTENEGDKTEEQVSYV

| SMILES | Ki [1] [µM] | Ki [3] [µM] | Ki [4] [µM] | IC50 [2] [µM] |
| --- | --- | --- | --- | --- |
| COc1ccc2ccccc2c1-c1c[nH]c(NC(C)=O)n1 [Compound 103C, N-[4-(2-Methoxy-naphthalen-1-yl)-1H-imidazol-2-yl]-acetamide] | < 0.1 | > 0.316 | > 0.316 | < 0.1 |
| CC(=O)Nc1nc(-c2ccc(F)c3ccccc23)c[nH]1 [Compound 103F, N-[4-(4-Fluoro-naphthalen-1-yl)-1H-imidazol-2-yl]-acetamide] | < 0.1 | > 3.16 | > 3.16 | < 0.1 |
| COc1ccc2ccccc2c1-c1c[nH]c(N)n1 [Compound 104C, 4-(2-Methoxy-naphthalen-1-yl)-1H-imidazol-2-ylamine] | < 0.1 | > 1 | > 0.316 | < 1 |
| COc1ccc2ccccc2c1-c1nc(N)[nH]c1C [Compound 104J, 4-(2-Methoxy-naphthalen-1-yl)-5-methyl-1H-imidazol-2-ylamine] | < 0.1 | > 0.316 | > 0.1 | < 0.1 |
| Nc1ncc(-c2cccc(-c3ccc(F)cc3)c2)o1 [Compound 209J, 5-(4′-Fluoro-biphenyl-3-yl)-oxazol-2-ylamine, trifluoroacetic acid] | < 1 | > 1 | > 1 | – |
| Cc1cc(C)cc(-c2cccc(-c3cnc(N)o3)c2)c1 [Compound 209K, 5-(3′,5′-Dimethyl-biphenyl-3-yl)-oxazol-2-ylamine, trifluoroacetic acid] | < 1 | > 1 | > 1 | – |
| Cn1nc(N)nc1Nc1cccc(-c2ccccc2)c1 [Compound 406A, N^5-biphenyl-3-yl-1-methyl-1H-[1,2,4]triazole-3,5-diamine] | < 0.316 | > 1 | > 1 | – |
| COc1ccccc1-c1cccc(Nc2nc(N)nn2C)c1 [Compound 406B, N^5-(2′-methoxy-biphenyl-3-yl)-1-methyl-1H-[1,2,4]triazole-3,5-diamine] | < 0.316 | > 1 | > 1 | – |
| Cc1cccc(-c2cccc(Nc3nc(N)nn3C)c2)c1 [Compound 406C, 1-methyl-1-(3′-methyl-biphenyl-3-yl)-1H-[1,2,4]triazole-3,5-diamine] | < 0.1 | > 1 | > 1 | < 0.1 |

Continued, in another order:

| Ki [1] [µM] | Ki [3] [µM] | Ki [4] [µM] | SMILES | IC50 [2] [µM] |
| --- | --- | --- | --- | --- |
| < 1 | > 1 | > 1 | Cc1oc(N)nc1-c1cccc(-c2ccccc2)c1 [Compound 218A, 4-Biphenyl-3-yl-5-methyl-oxazol-2-ylamine, trifluoroacetic acid] | – |
| < 0.316 | > 1 | > 1 | COc1ccccc1-c1cccc(-c2nc(N)oc2C)c1 [Compound 218C, 4-(2′-methoxy-biphenyl-3-yl)-5-methyl-oxazol-2-ylamine, trifluoroacetic acid] | – |
| < 0.316 | > 1 | > 1 | Cc1nc(N)oc1-c1cccc(-c2ccccc2)c1 [Compound 219A, 5-biphenyl-3-yl-4-methyl-oxazol-2-ylamine, trifluoroacetic acid] | – |
| < 0.1 | > 1 | > 1 | COc1ccccc1-c1cccc(-c2oc(N)nc2C)c1 [Compound 219B, 5-(2′-Methoxy-biphenyl-3-yl)-4-methyl-oxazol-2-ylamine, trifluoroacetic acid] | < 1 |
| < 1 | > 1 | > 1 | COc1ccc(-c2ccccc2)cc1-c1cnc(N)o1 [Compound 224A, 5-(4-methoxy-biphenyl-3-yl)-oxazol-2-ylamine, trifluoroacetic acid] | – |
| < 0.316 | > 1 | > 1 | COc1ccccc1-c1ccc(OC)c(-c2cnc(N)o2)c1 [Compound 224B, 5-(4,2′-dimethoxy-biphenyl-3-yl)-oxazol-2-ylamine, trifluoroacetic acid] | – |
| < 1 | > 1 | > 1 | COc1ccc(-c2cccc(C)c2)cc1-c1cnc(N)o1 [Compound 224C, 5-(4-Methoxy-3′-methyl-biphenyl-3-yl)-oxazol-2-ylamine, trifluoroacetic acid] | – |
| < 1 | > 1 | > 1 | Cc1cccc(-c2ccc(Nc3nc(N)nn3C)cc2)c1 [Compound 410C, 1-methyl-N^5-(3′-methyl-biphenyl-4-yl)-1H-[1,2,4]triazole-3,5-diamine trifluoroacetic acid] | – |
| < 1 | > 1 | > 1 | Cn1nc(Nc2ccc(-c3ccccc3)cc2)nc1N [Compound 411A, N^3-biphenyl-4-yl-1-methyl-1H-[1,2,4]triazole-3,5-diamine trifluoroacetic acid] | – |
| < 1 | > 1 | > 1 | COc1ccccc1-c1ccc(Nc2nc(N)n(C)n2)cc1 [Compound 411B, N^3-(2′-methoxy-biphenyl-4-yl)-7-methyl-1H-[1,2,4]triazole-3,5-diamine trifluoroacetic acid] | – |
| < 1 | > 1 | > 1 | Cc1cccc(-c2ccc(Nc3nc(N)n(C)n3)cc2)c1 [Compound 411C, 1-methyl-N^3-(3′-methyl-biphenyl-4-yl)-1H-[1,2,4]triazole-3,5-diamine trifluoroacetic acid] | – |
